Measured values from US20050186287A1, “Copper agonist that binds on the copper binding site of APP and/or exerts an inhibiting effect on the release of amyloid Abeta peptide” (priority 1999, published 2005).

Key:
[1] = tested on: APP processing in CHO cells (CUR3, APP695); assay: APP processing in copper-resistant CHO-CUR3 cells transfected with APP695 (35S-methionine labeling, immunoprecipitation); format: cell-based, human
From the text: (§1) CHO cells were transfected with a c-myc-tagged APP695 vector (Peraus et al., J. Neurosci 17, page 7714-7724 (1997)) or with the expression vector (pcDNA3) by means of a highly efficient calcium phosphate transfection (Chen et al., Biotechniques 6, pages 632-638 (1988). The pSP65 (Invitrogen company) N-tag-APP 695 DNA was cloned into the vector pcDNA3 (Invitrogen/ITC Biotechnology, Heidelberg) using the SmaI or EcoRV cloning sites. The transfection efficiency was checked by means of immunoprecipitation of APP with polyclonal rabbit-anti-c-myc antibody (18/47; produced against the amino acid sequence EQKLISEEDL of the c-myc sequence; from Eurogentec, Seraing, Belgium) and immunoblots using the monoclonal mouse antibody 22C11 (Boehringer Mannheim) in the “ECL” detection system (Amersham, Braunschweig). The parental CHO-K1 cells and the copper-resistant cell variant CUR3 were cultured at 37° C. in “Eagles” medium (BME), to which 2 mM L-glutamine, 0.1 mM proline, 20 mM HEPES and 10% fetal calf serum (Boehringer Ingelheim) were added. The basic copper concentration was 0.8 μM. CUR3 cells were cultured in a medium with 200 μM of copper added.
(§2) Stably transfected CHO cells of a culture dish (60 mm) were treated for 4 hours with 2 ml essential minimum medium (MEM) which contained no methionine (Sigma company, Munich) and was supplemented with 220 μCi [^35S]methionine (Amersham company, Braunschweig) and 5% N2. The conditioned medium (CM) and the cells were collected and immunorepcipitated. The protein concentrations were determined beforehand by means of a “BioRad” protein assay (Bradford et al., Anal. Biochem. 72, pages 248-254 (1976)) or the radioactively labeled proteins were precipitated with 10% trichloroacetic acid (TCA) and the incorporated [^35S]methionine was measured (Beckman LS 6000IC). The cells were lyzed in extraction buffer which contained 50 mM Tris-CHl (pH value 7.5), 150 mM NaCl, 2 mM EDTA, 2% triton X-100, 2% NP40, 10 μg/ml aprotinin and 10 μg/ml leupeptin. For removing cell debris, the lysate and the medium were centrifuged for 10 minutes at 13,000×g and the medium was adjusted to 25 mM Tris-CHl (pH value 8.5), 1 mM PMSF, 10 μg/ml aprotinin, 10 μg/ml leupeptin, 0.5% triton X-100 and 0.5% NP40. The solubilized proteins were diluted in 100 mM Tris-HCl (pH value 7.5), 300 mM NaCl and 4 mM EDTA at a concentration of 1:2. The supernatants were incubated overnight at 4° C. with APP antibodies with end-over-end rotation in an overhead shaker. In some experiments, the resulting supernatants were then analyzed using Aβ antiserum. Immunocomplexes were obtained with protein A sepharose and analzyed as described in (Weidemann et al., Cell 57, pages 115-126 (1989)).
(§3) For detecting APP, polyclonal rabbit antibodies directed against recombinant Fd-APP770 (antiserum 22734/6 against the amino acid residues 18-687 of APP770 or antiserum 23850/6 against the APP amino acid residues 18-491 (FIG. 1) were diluted at a concentration of 1:500 for precipitation. The antisera were produced in a laboratory according to standard methods known to the person skilled in the art. Aβ, p3.5 and […] were recognized by the polyclonal antibodies 830 (diluation 1:50; Aβ, p3.5 and p3 were likewise precipitated) which had been produced against a synthetic peptide corresponding to the Aβ amino acid residues 1-40 (FIG. 1). Aβ and its derivatives were separated by 10-20% Tris-tricin-polyacrylamide gels and APP using 7% Tris-glycin-polyacrylamide gels or 7% Tris-tricin-polyacrylamide gels. For immunoblots cell extracts and extracellular medium were precipitated with 10% TCA, washed with acetone and dissolved in sample buffer. After the electrophoresis, the gels were further processed as described in (Simons et al., J. Neurosci 16, pages 899-908 (1996)) and quantified with the “Fuji-Bas-PhosphorImager” system. The data were expressed as average values +/− standard deviation and, unless indicated otherwise, they represent the result of at least two separate experiments. […]

[2] = tested on: Aβ peptide with the human sequence; assay: Aβ production in CNS and blood of transgenic mice given Zn(II); format: in vivo; settings: orally, i.v., i.p., s.c. and i.c.
Method: (2) Primary neurons were isolated from transgenic mice which expressed the Aβ peptide with the human sequence, and their Aβ production was determined as described in (1).
(3) The above mentioned Zn(II) concentrations in PBS were applied to transgenic mice orally, i.v., i.p., s.c. and i.c. (see (2)) and the Aβ production was determined in the CNS and in the blood (which was withdrawn from the caudal vein) as outlined above in (1). The serum obtained from the caudal vein of the mice (150-200 μl) is filled using PBS buffer up to a volume of 500 μl and incubated with 5 μg monoclonal antibody WO-2 (Ida et al., supra) and 20 μl of a 1:1 suspension of protein G sepharose overnight at 4° C. on an overhead shaker. The resulting supernatant is then incubated with polyclonal antibodies (22734/6) against APP and the immunocomplexes are analyzed as described above in (1). The Aβ immunocomplexes are separated by means of 12% bis-tricin Novex gels in accordance with the instructions of the manufacturer and the relevant molecular weight range is analyzed after the transfer of the proteins to a nitrocellulose filter (380 mA at 4° C. for 40 minutes) with the monoclonal antibody WO-2 using the ECL technique according to Ida et al. The result here was also that a decrease of the Aβ production could be obtained from a concentration of 50 μM Zn(II).

[3] = tested on: CHO cells stably transfected with human APP695; assay: Aβ production in CHO cells stably transfected with human APP695, cell variant not given; format: cell-based
Method: The employed Zn^2+ concentrations were 10 μM, 50 μM, 100 μM and 200 μM. Thereafter, it was studied from which concentration of Zn(II) the release of the Aβ peptide can be inhibited. The following experiments were carried out for this purpose:
(1) CHO cells which were stably transfected with human APP695 were incubated in MEM medium with the above-mentioned concentrations of Zn(II) (10 to 200 μM in PBS). CHO cells with copper ions (10 to 50 μM in PBS) or without any addition were incubated as controls. The production of Aβ (total), Aβ40 and Aβ42 was determined qualitatively and quantitatively with polyclonal and monoclonal antibodies. APP, Aβ and p3 were detected according to biosynthetic labeling with ^35S methionine as followed. The stably transfected CHO cells, which were incubated as mentioned above with the respective substances, were incubated for four hours with 220 μCi ^35S methionine as follows. […] The protein concentrations were determined beforehand using the protein detection kit from BioRad company and the amount of incorporated radioactivity was determined via scintillation counting. […] The supernatants were incubated with the above mentioned polyclonal APP and Aβ antibodies overnight at 4° C., the immunocomplexes formed were isolated with protein A sepharose and analyzed according to the method described in Ida et al., J. Biol. Chem. 271, pp. 22908-22914.

[4] = tested on: APP processing in CHO cells (K1, APP695); assay: APP processing in parental CHO-K1 cells transfected with APP695 (35S-methionine labeling, immunoprecipitation); format: cell-based, human
From the text: as §1, §2, §3

CHO cells = assay: Viability of CHO cells (LDH outflow); format: cell-based; settings: different copper concentrations, 4 h labeling, entire experiment
Method: During the labeling period copper chloride or zinc chloride (concentrations: 5 μM to 200 μM) were added to the culturing medium. D(−)-penicillamine (PEN; Sigma), bathocuproin-disulfonate (BC; Aldrich) and 1,10-phenanthroline ([…]; Sigma) were added to the medium up to a final concentration of 100 μM (PEN and BC) or 200 μM (PEN). The viability of the cells was measured by means of the lactate dehydrogenase (LDH) outflow into the culture (41). The LDH outflow was measured as enzyme activity (units/liter) after 2 and 4 hours in the medium of 70% confluent monolayers of CHO cells in “Eagle” medium modified according to Dulbecco (DMEM)
For investigating the regulation of the APP metabolism by copper ions, CHO cells stably transfected with APP695 were labeled for 4 hours with ^35S-labeled methionine in the presence of different copper concentrations and following immunoprecipitation with polyclonal antibodies which detect APP (22734/6) or detect Aβ and p3 ([…]), the secretions of the APP ectodomain, of Aβ and p3 were measured. […] APP695 derivatives released in conditioned medium were detected as bands of 105 and 97.5 kDa (FIG. 3b), they probably differing in that the upper band has a higher content of sialic acids.

`[Cl-].[Cl-].[Zn+2]` [Zn(II), zinc chloride] was tested, and the “Aβ production reduced by” value ([1]; 50 μM Zn(II)) was 60%, the “Aβ production reduced by” value ([1]; 100 μM Zn(II)) was 90% and the “Aβ production reduced by” value ([1]; 200 μM Zn(II)) was 99%. The “secretion of APP” value ([1]; Zn(II) concentrations above 50 μM) was “lowered secretion”, the “Zn(II) concentration from which a decrease of the Aβ production could be obtained” value [2] was no less than 50 µM and the “Zn(II) concentration from which Aβ production could be reduced drastically” value ([3]; CHO cells, MEM medium, 10 to 200 μM Zn(II) tested) was no less than 50 µM. The “secretion of APP” value ([4]; CHO-K1 cells, Zn(II) concentrations above 50 μM) was “lowered secretion”, the “Aβ production reduced by” value ([4]; K1 cells, 50 μM Zn(II)) was 20% and the “Aβ production reduced by” value ([4]; K1 cells, 200 μM Zn(II)) was 60%.

For `[Cl][Cu][Cl]` [Cu(II), copper chloride], the “APP695, [%] increase/decrease as compared to standard conditions” value ([1]; 50 μM Cu(II), 4 h, cell lysate (cAPP)) was 550%, the “p3, [%] increase/decrease as compared to standard conditions” value ([1]; 50 μM Cu(II), 4 h, medium) was 270% and the “Aβ, [%] increase/decrease as compared to standard conditions” value ([1]; 50 μM Cu(II), 4 h, medium, % of basal concentration) was 20%. The “SAPP695c, [%] increase/decrease as compared to standard conditions” value ([1]; 50 μM Cu(II), 4 h, soluble APP695 in conditioned medium, relative to basal medium (0.8 μM Cu)) was 265%, the Aβ levels ([1]; Cu(II) concentrations below the basal level (0.8 μM)) was “increased drastically” and the Aβ concentration ([1]; above 100 μM copper) was “hardly detectable”. For the same compound, the “secretion of p3” value ([1]; between 20 μM and 50 μM copper in the medium) was 270%, the “Cu(II) concentration at which the increase in sAPP695 reached a maximum” value ([1]; conditioned medium) was 50 µM and the “percentage of cAPP” value ([1]; copper concentration of 50 μM exceeded in the medium) was 550%. The p3.5 concentration ([1]; increasing copper (50 μM and above)) was “strongly lowered”, the “viability of the cell lines” value (CHO cells) was “no reduced viability” and the “Aβ, [%] increase/decrease as compared to standard conditions” value ([4]; K1 cells, 10 μM Cu(II), 4 h) was 20%. The “p3, [%] increase/decrease as compared to standard conditions” value ([4]; K1 cells, 10 μM Cu(II), 4 h) was 154%, the “APP695, [%] increase/decrease as compared to standard conditions” value ([4]; K1 cells, 10 μM Cu(II), 4 h, cell lysate (cAPP)) was 295% and the “SAPP695c, [%] increase/decrease as compared to standard conditions” value ([4]; K1 cells, 10 μM Cu(II), 4 h, soluble APP695 in medium) was 475%. The sAPP751/770 level ([4]; K1 cells, 10 μM copper, endogenous KPI-containing isoforms) was 275%, the Aβ levels ([4]; K1 cells, Cu(II) concentrations below the basal level (0.8 μM)) was “increased drastically” and the “Cu(II) concentration at which the increase in sAPP695 reached a maximum” value ([4]; K1 cells, conditioned medium) was 10 µM. For the same compound, the Aβ production ([4]; K1 cells, increasing copper concentrations) was “below the detection limit”.

With `[Ca+2]` [Ca(II)] the Aβ production ([3]; above 200 μM, detection limit reached) was “no further decrease”.
